Measurements taken from patent US20010007657A1, “Compositions and methods for manipulating glial progenitor cells and treating neurological deficits” (priority 1997, published 2001).
“Also recorded” adds a separate entry of the source.

Experiments:
[1] = system: neural precursor cells of the subependymal zone; assay: Periventricular cellular expansion and striatal ridge formation (thionin, silver staining, immunohistochemistry); format: in vivo, rat; conditions: for (incidence of striatal ridge) / Expansion (incidence of cellular expansion along ventricle): midstriatal infusion 0.5 μg/day
Protocol: Adult male Sprague-Dawley rats weighing 250-300 grams were used throughout the study. Twenty-four animals received standard midstriatal infusions of rat TGFα (0.5 μg/day; Sigma Chemical Co.). Another 26 rats received either artificial cerebrospinal fluid (“aCSF”) or no infusion. A subset of animals in the standard TGFα infusion group and the control group received stereotaxic 6-OHDA injections into the substantia nigra 48 hours after the infusions were begun. Animals used in this portion of the study were classified into six groups according to their infusion-lesion combination, as follows: TGFα infusion, lesion (n=13); TGFα infusion, no lesion (n=11); aCSF infusion, lesion (n=12); aCSF infusion, no lesion (n=9); no infusion, lesion (n=1); no infusion, no lesion (n=4).
Additional animals received TGFα infusions into other regions of striatum, the lateral ventricle, cerebral cortex, or the septum. Four more animals (two per group) received midstriatal TGFα infusions at one-half or one-tenth the standard dose. Also, two animals received midstriatal infusions of epidermal growth factor (EGF) instead of TGFα. The EGF administered in these rats was at the standard 0.5 μg/day dose. All of the animals in these extra groups were lesioned. Rats in all of the experiments were typically perfused one to 16 days postlesion (3-18 days of infusion). […] Brain sections were prepared and stained using various immunocytochemical and histochemical techniques.
Rats were anesthetized with 8 mg xylazine and 100 mg ketamine/kg. Infusions of TGFα were provided up to 18 days by Alzet osmotic minipump (2002). The minipumps were filled to about 200 μl with either aCSF for control animals or 20 μg TGFα in 400 μl of aCSF (50 μg/ml) for experimental animals. Under sterile conditions, the infusion cannula was positioned to stereotaxic coordinates (+1.2 A/P; +2.7 M/L; −6.0 D/V) based on Bregma (Paxinos and Watson, The Rat Brain in Stereotaxic Coordinates, Academic Press, San Diego, 1986) and cemented to the top of the skull with dental cement. The infusate was delivered via cannula at approximately 0.5 μl/hour. Some additional control animals received infusions either into the lateral ventricle, the overlying cortex, or other areas.
Forty-eight hours after the minipump implant, rats were anesthetized as above. A chilled 4.8 mg/ml solution of 6-OHDA HCl was prepared immediately prior to injection. […] A 6-8 μl volume was injected at a rate of 1 μl/minute.
Animals were perfused with 500 ml of 4% paraformaldehyde in 0.1 M phosphate buffered saline (PBS; pH 7.4) one to 16 days postlesion and their brains placed into 20% sucrose. The next day, the brains were frozen in isopentane at −20° C. Forty-micron coronal sections were then cut on a freezing microtome into 2% paraformaldehyde in 0.1 M PBS. Continuous sections were taken through the striatum and substantia nigra-VTA. Representative sections were taken through the rest of the brain.
Microtomed brain sections for Nissl staining were mounted onto gelatin-coated slides and allowed to dry overnight. They were then dehydrated and rehydrated through ethanol baths, and placed in Thionin solution for approximately four minutes. The sections were dehydrated through the series of ethanol baths, cleared in successive Histoclear™ washes, and coverslipped. Section were viewed under light microscopy and photographed with Technical Pan Film™ (Kodak, Inc.) at ISO 100 (HC-110 processing for six minutes).
Degenerating fibers and cells of the ridge were labeled using a modification to the Nauta staining method, similar to Procedure I of Fink-Heimer (Giolli and Karamanlidis, In: Neuroanatomical Research Techniques, R. T. Robertson, Ed., pp. 211-240, Academic Press, New York, 1978).

[2] = system: TGFα mRNA; assay: In situ hybridization of TGFα mRNA after nigral 6-OHDA lesion and/or striatal TGFα infusion; format: in vivo, rat
From the text: (§1) Adult male Sprague-Dawley rats weighing 250-300 grams were obtained from Simonsen (Gilroy, Calif.) and assigned to one of five treatment groups: (1) striatal TGFα infusion, nigral 6-OHDA lesion (hereafter, “lesion”); (2) TGFα infusion, no lesion; (3) artificial cerebrospinal (aCSF) infusion, lesion; (4) aCSF infusion, no lesion; (5) no infusion, no lesion. Four to eight animals were used per experimental group. The animals were monitored after each surgical procedure until fully recovered and maintained at all other times in a temperature and humidity controlled vivarium.
(§2) Rats were anesthetized with 8 mg xylazine and 100 mg ketamine per kilogram body weight. […] The success and extent of 6-OHDA lesions were monitored by tyrosine hydroxylase (TH) mRNA in situ hybridization in the midbrain. TH is the rate-limiting enzyme in the dopamine synthetic pathway and is a common marker for dopamine-producing neurons. One animal with an incomplete lesion (retaining significant numbers of nigral TH-IR cells) was excluded from the study and is not included in the total number of animals.
(§3) Osmotic minipumps (model 2002, Alzet, Inc.) were implanted four to five weeks post-lesion. […] The minipump itself was placed subcutaneously in the interscapular region.
(§4) At the end of the infusion period, animals were sacrificed by decapitation. Their brains were quickly removed, frozen in isopentane at −20° C., and stored at −70° C. Coronal cryostat sections were cut at 20 μm and thaw-adhered to Vectabond™ (Vector Labs, Inc.) coated slides in ordered anterior-to-posterior rows. The sections were postfixed with 4% paraformaldehyde in 0.1 M phosphate buffer (pH 7.4) for one hour, rinsed in phosphate buffer and air dried. Sections were stored with desiccant at −20° C. until processed.
TGFα mRNA probes were generated from a 550 nucleotide XbaI/BamHI cDNA fragment from the 5′ end of rat TGFα subcloned into pGEM 7Zf (Promega, Inc.). Antisense and sense probes were transcribed with SP6 and T7 polymerases, respectively. […]

[3] = system: EGF receptor mRNA; assay: In situ hybridization of EGF receptor mRNA after nigral 6-OHDA lesion and/or striatal TGFα infusion; format: in vivo, rat
From the text: as §1, §2, §3, §4
TGFα mRNA probes were generated from a 550 nucleotide XbaI/BamHI cDNA fragment from the 5′ end of rat TGFα subcloned into pGEM 7Zf (Promega, Inc.). Antisense and sense probes were transcribed with SP6 and T7 polymerases, respectively. Rat EGF receptor mRNA probes were produced from a 718 base pair BamHI/SphI insert from the 5′ end of the gene in pGEM 7Zf. Probes for rat TH were created using the 1.2 kb BamHI/EcoRI fragment subcloned into pGEM 7Zf. Antisense subclones for EGF receptor and TH were transcribed with T7 polymerase. Sense subclones for EGF receptor and TH were transcribed with SP6 polymerase. All probes were radiolabeled by transcription in the presence of [^35S]UTP (NEN Research Products, Inc.).
In situ nucleic acid hybridization was performed according to the method described by Simmons et al. 1989, supra). Parallel sections from experimental and control animals were hybridized overnight at 65° C. with sense or antisense probes at a concentration of 10^7 cpm/ml.

[4] = system: stem and neuroprogenitor cells in the SVZ; assay: Morphological studies of proliferation, directed migration and differentiation induction (Example 3); format: in vivo, rat
From the text: In situ hybridization histochemistry: TGFα mRNA probes were generated from a 550 nucleotide XbaI/BamHI cDNA fragment from the 5′ end of rat TGFα, subcloned into pGEM 7Zf (Promega, Inc). Antisense and sense probes were transcribed with SP6 and T7 polymerases, respectively. Rat EGF receptor mRNA probes were produced from a 718 base pair BamHI/SphI insert from the 5′ end of the gene in pGEM 7Zf. Probes for rat TH were created using the […] BamHI/EcoRI fragment subcloned into pGEM 7Zf. Antisense subclones for EGF receptor and TH were transcribed with T7 polymerase. Sense subclones for EGF receptor and TH were transcribed with SP6 polymerase. All probes were radiolabeled by transcription in the presence of [35S]UTP (NEN Research, Inc). In situ nucleic acid hybridization was performed according to Simmons (1989) J. Histochem. 12:169-181). Parallel sections from experimental and control animals were hybridized overnight at 65° C. with sense or antisense probes at a concentration of […]. Adjacent sections from the same animals were hybridized to each of the probes so that direct comparison could be made of their anatomical distributions. […] After successful development of the autoradiography film, analysis and quantitation was done using MCID (Imaging Research, Inc).

[5] = system: 6OHDA lesioned animals
[6] = system: neural precursor cells of the subependymal zone; assay: Periventricular cellular expansion and striatal ridge formation (thionin, silver staining, immunohistochemistry); format: in vivo, rat; conditions: three months after the TGFα infusion pump was removed
[7] = system: stem and neuroprogenitor cells in the SVZ; assay: Morphological studies of proliferation, directed migration and differentiation induction (Example 3); format: in vivo, rat; remark: listed apart in the source
[8] = midstriatal EGF infusion 0.5 μg/day, lesioned animals
[9] = intracerebroventricular (ICV) infusion ipsilateral to lesion, two weeks
[10] = lower doses of TGFα (one-half or one-tenth the standard dose), lesioned
[11] = infusion into the lateral ventricle, 6-OHDA-lesioned

Compound: EGF: epidermal growth factor, infused midstriatally instead of TGFα at 0.5 μg/day (NSDSECPLSHDGYCLHDGVCMYIEALDKYACNCVVGYIGERCQYRDLKWWELR; Epidermal growth factor; UniProt P01133 971-1023, looked up)
- cellular expansion along the ventricle [1, 8]: induced the cellular expansion along the ventricle
- formation of the striatal ridge [1, 8]: did not induce formation of the striatal ridge

Compound: Cl.NCCc1cc(O)c(O)cc1O [6-OHDA, 6-hydroxydopamine HCl, reference compound]
- contralateral TGFα mRNA hybridization ([2]; unilateral nigral 6-OHDA lesion): no effect
- reduction of TGFα mRNA hybridization in the ipsilateral striatum ([2]; unilateral nigral 6-OHDA lesion, several weeks post-lesion): 25%
- EGF receptor hybridization in the ipsilateral SN-VTA ([3]; 6-OHDA lesion, midbrain): abolished
- striatal and subependymal EGF receptor hybridization ([3]; 6-OHDA lesioned animals compared to normal animals): unchanged

Compound: TGFα: transforming growth factor alpha polypeptide, EGF-family growth factor that binds the EGF receptor; infused into rat brain
- TGFα mRNA hybridization in the infused striatum ([2]; unlesioned animals, striatal TGFα infusion two weeks, vs contralateral or normal striata): unchanged
- rats with ridge of dense EGF receptor mRNA hybridization in ipsilateral striatum ([3]; TGFα infusion/nonlesion group): one of six
- rats with ridge of dense EGF receptor mRNA hybridization in ipsilateral striatum ([3]; combined TGFα infusion/6-OHDA lesion group): five of the six
- EGF receptor mRNA hybridization in the ipsilateral subependymal region ([3]; striatal TGFα infusion two weeks, lesioned and unlesioned): dramatically increased; also recorded: approximately doubled
- difference in distance between lateral extents of the ridges and the ventricle wall, 12 vs 16 days of infusion ([1]; 6-OHDA lesion, midstriatal TGFα): approximately 1.6 mm
- distance of ventral portion of the ridge from the ventricle wall ([1]; 12 days infusion, 6-OHDA lesion, midstriatal TGFα): ≤ 400 μm
- distance of ventral portion of the ridge from the ventricle ([1]; 16 days infusion, 6-OHDA lesion, midstriatal TGFα): up to two mm
- nestin immunostaining of the ridge ([1]; TGFα infusion fourteen days, lesioned): intensely stained
- GFAP immunostaining of striatal ridge and cellular expansion ([1]; TGFα-induced ridge, two weeks of infusion): failed to stain
- expansion of cells along the ipsilateral ventricle ([1]; cortical infusions slightly penetrating the corpus callosum, two weeks, lesioned): stimulated expansion of cells
- cell density along the lateral ventricle ([1]; dorsal cortical infusions not penetrating the corpus callosum, two weeks, lesioned): no discernable effect
- buildup of cells in the adjacent ventricular wall [1, 9]: stimulated the buildup of cells
- formation of the striatal ridge [1, 9]: did not induce formation of the striatal ridge
- buildup of cells along the ventricle ipsilateral to the infusion (thionin) ([1]; intrastriatal TGFα infusions of six days or more): dramatic buildup of cells
- cellular expansion and ridge formation [1, 10]: induced both the cellular expansion and ridge formation
- number of cells in expansion and ridge (qualitative) [1, 10]: decreased
- (incidence of striatal ridge) ([1]; 6-OHDA lesion, n=13): 92%
- Expansion (incidence of cellular expansion along ventricle) ([1]; 6-OHDA lesion, n=13): 100%
- (incidence of striatal ridge) ([1]; no lesion, n=11): 27%
- Expansion (incidence of cellular expansion along ventricle) ([1]; no lesion, n=11): 100%
- formation of septal ridges ([1]; septal and some striatal infusions, two weeks, lesioned): stimulated the formation of septal ridges
- expression of EGFr mRNA in the SVZ ([4]; 6-OHDA lesion and TGF alpha infusion): significant increase
- expression of EGFr mRNA in the SVZ ([4]; TGF alpha infusion, no 6-OHDA lesion): significant increase
- apomorphine-induced rotations ([5]; animals receiving the TGFα infusions): significant reduction
- improvement in rotational behavior, TGFα versus aCSF-treated control animals ([5]; infusion 14 days after 6-OHDA lesion, 14-day striatal infusion, p<0.05): 38%
- animals not exhibiting rotational behavioral asymmetry following apomorphine ([5]; infusion contemporaneous with 6-OHDA lesion, entire four-week period): 10 of the 11
- other motor behaviors (exploratory, consummatory behavior) ([5]; rat, in vivo): did not appear to be adversely affected
- persistence of the ridge in the striatum [6]: still prominent
- effectiveness in inducing ridge formation ([7]; 10 ug dose): minimally less effective
- thickening of the SVZ ([7]; 4 to 6 days of continuous infusion, lesioned animals): pronounced thickening of the SVZ
- effectiveness in inducing ridge formation ([7]; 50 and 100 ug dose): equally effective
- 5′BrdU incorporation into the SVZ ([7]; first three days of infusion): massively increased incorporation
- nestin staining of SVZ and ridge cells ([7]; from the fourth day of infusion): nestin-positive
- SVZ proliferation [7, 11]: temporary proliferation of SVZ cells
- migratory ridge [7, 11]: no migratory ridge
- SVZ proliferation ([7]; infusion into the septum): massive proliferation of the SVZ
- β-III tubulin (neuronal lineage) staining ([7]; starting at 14 days of infusion): β-III tubulin positive cells were seen
- tyrosine hydroxylase (TH) positive cells in the striatum ([7]; third and fourth week of infusion, 6-OHDA-lesioned): increasing numbers of TH positive cells
